Laboratory results: patent US4740233A, “Substituted 1,2,4-triazolo[1,5-a]-pyrimidine-2-sulfonamides and compositions and methods of controlling undesired vegetation and suppressing the nitrification of ammonium nitrogen in soil” (The Dow Chemical Company, priority 1986, dated 1988)

Legend:
jimsonweed = experiment: Postemergent control of plant species; assay type: in vivo, Datura stramonium; conditions: Datura stramonium, post-emergence, 336 h, read-out: percent postemergent control
How it was run: (§1)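 Compounds in acetone mixed 1:1 with water containing 0.1% surfactant, sprayed postemergence on greenhouse plants at the 2-4 leaf stage. Growth reduction versus untreated plants of the same species scored after about two weeks.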

barnyardgrass = experiment: Postemergent control of plant species; assay type: in vivo, Echinochloa crusgalli; conditions: Echinochloa crus-galli, post-emergence, 336 h, read-out: percent postemergent control
How it was run: as §1

annual morning glory = experiment: Postemergent control of plant species; assay type: in vivo, Ipomoea spp.; conditions: Ipomoea, post-emergence, 336 h, read-out: percent postemergent control
How it was run: as §1

sorghum = experiment: Postemergent control of plant species; assay type: in vivo, Sorghum vulgare; conditions: Sorghum, post-emergence, 336 h, read-out: percent postemergent control
How it was run: as §1

cocklebur = experiment: Postemergent control of plant species; assay type: in vivo, Xanthium spp.; conditions: Xanthium strumarium, post-emergence, 336 h, read-out: percent postemergent control
How it was run: as §1

johnson grass = experiment: Postemergent control of plant species; assay type: in vivo, Sorghum halepense; conditions: Sorghum halepense, post-emergence, 336 h, read-out: percent postemergent control
How it was run: as §1

rape = experiment: Postemergent control of plant species; assay type: in vivo, Brassica napus; conditions: Brassica napus, post-emergence, 336 h, read-out: percent postemergent control
How it was run: as §1

pigweed = experiment: Postemergent control of plant species; assay type: in vivo, Amaranthus spp.; conditions: Amaranthus retroflexus, post-emergence, 336 h, read-out: percent postemergent control
How it was run: as §1

cotton = experiment: Postemergent control of plant species; assay type: in vivo, Gossypium spp.; conditions: Gossypium hirsutum, post-emergence, 336 h, read-out: percent postemergent control
How it was run: as §1

yellow nutsedge = experiment: Postemergent control of plant species; assay type: in vivo, Cyperus esculentus; conditions: Cyperus, post-emergence, 336 h, read-out: percent postemergent control
How it was run: as §1

rice = experiment: Postemergent control of plant species; assay type: in vivo, Oryza sativa; conditions: Oryza sativa, post-emergence, 336 h, read-out: percent postemergent control
How it was run: as §1

sugar beet = experiment: Postemergent control of plant species; assay type: in vivo, Beta saccharifera; conditions: Beta vulgaris, post-emergence, 336 h, read-out: percent postemergent control
How it was run: as §1

yellow foxtail = experiment: Postemergent control of plant species; assay type: in vivo, Setaria lutescens; conditions: Setaria, post-emergence, 336 h, read-out: percent postemergent control
How it was run: as §1

velvetleaf = experiment: Postemergent control of plant species; assay type: in vivo, Abutilon theophrasti; conditions: Abutilon theophrasti, post-emergence, 336 h, read-out: percent postemergent control
How it was run: as §1

crabgrass = experiment: Postemergent control of plant species; assay type: in vivo, Digitaria spp.; conditions: Digitaria sanguinalis, post-emergence, 336 h, read-out: percent postemergent control
How it was run: as §1

corn = experiment: Postemergent control of plant species; assay type: in vivo, Zea mays; conditions: Zea mays, post-emergence, 336 h, read-out: percent postemergent control
How it was run: as §1

wild oats = experiment: Postemergent control of plant species; assay type: in vivo, Avena fatua; conditions: Avena fatua, post-emergence, 336 h, read-out: percent postemergent control
How it was run: as §1

wheat = experiment: Postemergent control of plant species; assay type: in vivo, Triticum aestivum; conditions: Triticum aestivum, post-emergence, 336 h, read-out: percent postemergent control
How it was run: as §1

soybean = experiment: Postemergent control of plant species; assay type: in vivo, Glycine max.; conditions: Glycine max, post-emergence, 336 h, read-out: percent postemergent control
How it was run: as §1

[1] = test system: nitrification of ammonium nitrogen; experiment: Suppression of nitrification of ammonium nitrogen in soil; conditions: 27° C.
How it was run: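 Soil (20 g) moistened to its 1/3 bar tension value, mixed with test chemical and incubated sealed for two weeks at 27° C. Nitrate extracted with ammonium sulfate solution and measured by nitrate-specific ion electrode; value given as % NH4-N remaining.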

Cc1cc(C)n2nc(S(=O)(=O)Nc3ccc(F)cc3Cl)nc2n1 [Compound 30]
pest or weed control at 500 ppm (jimsonweed): 0%
pest or weed control at 500 ppm (barnyardgrass): 0%
pest or weed control at 500 ppm (annual morning glory): 60%
plant injury at 500 ppm (sorghum): 0%
pest or weed control at 500 ppm (cocklebur): 40%
pest or weed control at 500 ppm (johnson grass): 0%
plant injury at 500 ppm (rape): 40%
pest or weed control at 500 ppm (pigweed): 0%
plant injury at 500 ppm (cotton): 0%
pest or weed control at 500 ppm (yellow nutsedge): 0%
plant injury at 500 ppm (rice): 20%
plant injury at 500 ppm (sugar beet): 0%
pest or weed control at 500 ppm (yellow foxtail): 0%
pest or weed control at 500 ppm (velvetleaf): 40%
pest or weed control at 500 ppm (crabgrass): 0%
plant injury at 500 ppm (corn): 0%
pest or weed control at 500 ppm (wild oats): 0%
plant injury at 500 ppm (wheat): 0%
plant injury at 500 ppm (soybean): 30%
% NH4-N Remaining After 2 Weeks Incubation ([1]; 0.01 ppm): 0%
% NH4-N Remaining After 2 Weeks Incubation ([1]; 0.1 ppm): 6%
% NH4-N Remaining After 2 Weeks Incubation ([1]; 1 ppm): 54%
% NH4-N Remaining After 2 Weeks Incubation ([1]; 10 ppm): 81%

O=S(=O)(Nc1c(F)cccc1F)c1nc2ncc(Cl)cn2n1 [Compound 117, 6-chloro-N-(2,6-difluorophenyl)-1,2,4-triazolo[1,5-a]pyrimidine-2-sulfonamide]
pest or weed control at 500 ppm (jimsonweed): 100%
pest or weed control at 500 ppm (barnyardgrass): 0%
pest or weed control at 500 ppm (annual morning glory): 80%
plant injury at 500 ppm (sorghum): 60%
pest or weed control at 500 ppm (cocklebur): 100%
pest or weed control at 500 ppm (johnson grass): 75%
plant injury at 500 ppm (rape): 100%
pest or weed control at 500 ppm (pigweed): 75%
plant injury at 500 ppm (cotton): 90%
pest or weed control at 500 ppm (yellow nutsedge): 25%
plant injury at 500 ppm (rice): 0%
plant injury at 500 ppm (sugar beet): 100%
pest or weed control at 500 ppm (yellow foxtail): 65%
pest or weed control at 500 ppm (velvetleaf): 100%
pest or weed control at 500 ppm (crabgrass): 0%
plant injury at 500 ppm (corn): 0%
pest or weed control at 500 ppm (wild oats): 0%
plant injury at 500 ppm (wheat): 0%
plant injury at 500 ppm (soybean): 35%
% NH4-N Remaining After 2 Weeks Incubation ([1]; 0.06 ppm): 32%
% NH4-N Remaining After 2 Weeks Incubation ([1]; 0.25 ppm): 24%
% NH4-N Remaining After 2 Weeks Incubation ([1]; 1 ppm): 41%
% NH4-N Remaining After 2 Weeks Incubation ([1]; 4 ppm): 72%

Cc1cc(C)n2nc(S(=O)(=O)Nc3c(Cl)cccc3CO)nc2n1 [Compound 93]
pest or weed control at 500 ppm (jimsonweed): 80%
pest or weed control at 500 ppm (barnyardgrass): 0%
pest or weed control at 500 ppm (annual morning glory): 0%
plant injury at 500 ppm (sorghum): 0%
pest or weed control at 500 ppm (cocklebur): 80%
pest or weed control at 500 ppm (johnson grass): 0%
plant injury at 500 ppm (rape): 70%
pest or weed control at 500 ppm (pigweed): 70%
plant injury at 500 ppm (cotton): 0%
pest or weed control at 500 ppm (yellow nutsedge): 15%
plant injury at 500 ppm (rice): 0%
plant injury at 500 ppm (sugar beet): 70%
pest or weed control at 500 ppm (yellow foxtail): 0%
pest or weed control at 500 ppm (velvetleaf): 20%
pest or weed control at 500 ppm (crabgrass): 0%
plant injury at 500 ppm (corn): 0%
pest or weed control at 500 ppm (wild oats): 0%
plant injury at 500 ppm (wheat): 0%
plant injury at 500 ppm (soybean): 90%
% NH4-N Remaining After 2 Weeks Incubation ([1]; 0.06 ppm): 79%
% NH4-N Remaining After 2 Weeks Incubation ([1]; 0.25 ppm): 57%
% NH4-N Remaining After 2 Weeks Incubation ([1]; 1 ppm): 64%
% NH4-N Remaining After 2 Weeks Incubation ([1]; 4 ppm): 89%

Cc1nc2nc(S(=O)(=O)Nc3ccccc3C(F)(F)F)nn2c2c1CCC2 [Compound 106]
pest or weed control at 500 ppm (jimsonweed): 0%
pest or weed control at 500 ppm (barnyardgrass): 30%
pest or weed control at 500 ppm (annual morning glory): 80%
plant injury at 500 ppm (sorghum): 40%
pest or weed control at 500 ppm (cocklebur): 90%
pest or weed control at 500 ppm (johnson grass): 90%
plant injury at 500 ppm (rape): 40%
pest or weed control at 500 ppm (pigweed): 40%
plant injury at 500 ppm (cotton): 30%
pest or weed control at 500 ppm (yellow nutsedge): 0%
plant injury at 500 ppm (rice): 30%
plant injury at 500 ppm (sugar beet): 0%
pest or weed control at 500 ppm (yellow foxtail): 0%
pest or weed control at 500 ppm (velvetleaf): 0%
pest or weed control at 500 ppm (crabgrass): 0%
plant injury at 500 ppm (corn): 90%
pest or weed control at 500 ppm (wild oats): 30%
plant injury at 500 ppm (wheat): 20%
plant injury at 500 ppm (soybean): 90%
% NH4-N Remaining After 2 Weeks Incubation ([1]; 0.01 ppm): 29%
% NH4-N Remaining After 2 Weeks Incubation ([1]; 0.1 ppm): 56%
% NH4-N Remaining After 2 Weeks Incubation ([1]; 1 ppm): 88%
% NH4-N Remaining After 2 Weeks Incubation ([1]; 10 ppm): 96%

CCOc1cnc2nc(S(=O)(=O)Nc3ccccc3C(F)(F)F)nn2c1 [Compound 201]
pest or weed control at 500 ppm (jimsonweed): 70%
pest or weed control at 500 ppm (barnyardgrass): 0%
pest or weed control at 500 ppm (annual morning glory): 0%
plant injury at 500 ppm (sorghum): 0%
pest or weed control at 500 ppm (cocklebur): 80%
pest or weed control at 500 ppm (johnson grass): 0%
plant injury at 500 ppm (rape): 20%
pest or weed control at 500 ppm (pigweed): 90%
plant injury at 500 ppm (cotton): 0%
pest or weed control at 500 ppm (yellow nutsedge): 0%
plant injury at 500 ppm (rice): 0%
plant injury at 500 ppm (sugar beet): 50%
pest or weed control at 500 ppm (yellow foxtail): 0%
pest or weed control at 500 ppm (velvetleaf): 60%
pest or weed control at 500 ppm (crabgrass): 0%
plant injury at 500 ppm (corn): 0%
pest or weed control at 500 ppm (wild oats): 0%
plant injury at 500 ppm (wheat): 0%
plant injury at 500 ppm (soybean): 0%
% NH4-N Remaining After 2 Weeks Incubation ([1]; 0.06 ppm): 0%
% NH4-N Remaining After 2 Weeks Incubation ([1]; 0.25 ppm): 11%
% NH4-N Remaining After 2 Weeks Incubation ([1]; 1 ppm): 56%
% NH4-N Remaining After 2 Weeks Incubation ([1]; 4 ppm): 67%

COC(=O)c1nn(C)c(C)c1NS(=O)(=O)c1nc2nc(C)cc(C)n2n1 [Compound 250]
pest or weed control at 500 ppm (jimsonweed): 50%
pest or weed control at 500 ppm (barnyardgrass): 0%
pest or weed control at 500 ppm (annual morning glory): 25%
plant injury at 500 ppm (sorghum): 0%
pest or weed control at 500 ppm (cocklebur): 50%
pest or weed control at 500 ppm (johnson grass): 0%
plant injury at 500 ppm (rape): 70%
pest or weed control at 500 ppm (pigweed): 40%
plant injury at 500 ppm (cotton): 0%
pest or weed control at 500 ppm (yellow nutsedge): 0%
plant injury at 500 ppm (rice): 0%
plant injury at 500 ppm (sugar beet): 30%
pest or weed control at 500 ppm (yellow foxtail): 0%
pest or weed control at 500 ppm (velvetleaf): 70%
pest or weed control at 500 ppm (crabgrass): 0%
plant injury at 500 ppm (corn): 0%
pest or weed control at 500 ppm (wild oats): 0%
plant injury at 500 ppm (wheat): 0%
plant injury at 500 ppm (soybean): 50%

COC(=O)c1ccc(Cl)c(NS(=O)(=O)c2nc3nc(C)cc(C)n3n2)c1Cl [Compound 82]
pest or weed control at 500 ppm (jimsonweed): 90%
pest or weed control at 500 ppm (barnyardgrass): 0%
pest or weed control at 500 ppm (annual morning glory): 85%
plant injury at 500 ppm (sorghum): 0%
pest or weed control at 500 ppm (cocklebur): 85%
pest or weed control at 500 ppm (johnson grass): 0%
plant injury at 500 ppm (rape): 100%
pest or weed control at 500 ppm (pigweed): 100%
plant injury at 500 ppm (cotton): 85%
pest or weed control at 500 ppm (yellow nutsedge): 0%
plant injury at 500 ppm (rice): 0%
plant injury at 500 ppm (sugar beet): 95%
pest or weed control at 500 ppm (yellow foxtail): 0%
pest or weed control at 500 ppm (velvetleaf): 85%
pest or weed control at 500 ppm (crabgrass): 0%
plant injury at 500 ppm (corn): 0%
pest or weed control at 500 ppm (wild oats): 0%
plant injury at 500 ppm (wheat): 0%
plant injury at 500 ppm (soybean): 85%

Cc1cc(C)n2nc(S(=O)(=O)Nc3c(Cl)ccc4ccccc34)nc2n1 [Compound 243]
pest or weed control at 500 ppm (jimsonweed): 95%
pest or weed control at 500 ppm (barnyardgrass): 70%
pest or weed control at 500 ppm (annual morning glory): 80%
plant injury at 500 ppm (sorghum): 75%
pest or weed control at 500 ppm (cocklebur): 100%
pest or weed control at 500 ppm (johnson grass): 80%
plant injury at 500 ppm (rape): 100%
pest or weed control at 500 ppm (pigweed): 80%
plant injury at 500 ppm (cotton): 80%
pest or weed control at 500 ppm (yellow nutsedge): 95%
plant injury at 500 ppm (rice): 45%
plant injury at 500 ppm (sugar beet): 95%
pest or weed control at 500 ppm (yellow foxtail): 75%
pest or weed control at 500 ppm (velvetleaf): 90%
pest or weed control at 500 ppm (crabgrass): 0%
plant injury at 500 ppm (corn): 75%
pest or weed control at 500 ppm (wild oats): 0%
plant injury at 500 ppm (wheat): 20%
plant injury at 500 ppm (soybean): 85%
